Where “and” joins values, the source holds several entries; their conditions need not be identical. Equal entries are not always repeated. Toxic doses and inconclusive results are not listed.

This test relates to L1210 leukemia ip in BDF1 mice, survival T/C. Kind of test: NCI In Vivo Anticancer Drug Screen. Data for tumor model L1210 Leukemia (intraperitoneal) in B6D2F1 (BDF1) mice. Particulars: endpoint: mean survival time, higher = longer survival. An outline of the steps:
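Read-out is survival time, reported as the treated-group measurement over the vehicle-control measurement.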

[1] abbreviates: dose: 100.0 mg/kg/injection, schedule: Q04DX003 (ip), vehicle: saline.
Setting [2] is: dose: 200.0 mg/kg/injection, schedule: Q04DX003 (ip), vehicle: saline.
The mark [3] stands for this setting: dose: 400.0 mg/kg/injection, schedule: Q04DX003 (ip), vehicle: saline.
Setting [4] is: dose: 100.0 mg/kg/injection, schedule: Q01DX009 (ip), vehicle: saline with Tween-80.
The mark [5] stands for this setting: dose: 200.0 mg/kg/injection, schedule: Q01DX009 (ip), vehicle: saline with Tween-80.
Where [6] appears, read: dose: 400.0 mg/kg/injection, schedule: Q01DX009 (ip), vehicle: saline with Tween-80.
Setting [7] is: dose: 25.0 mg/kg/injection, schedule: Q04DX002 (ip), vehicle: Klucel (hydroxypropylcellulose) (HPC).
The mark [8] stands for this setting: dose: 100.0 mg/kg/injection, schedule: Q04DX002 (ip), vehicle: Klucel (hydroxypropylcellulose) (HPC).

As to `Nc1ncnc(N)c1NC(=O)c1ccc(CCc2ccccc2)c(Cl)c1`, the T/C by setting is: (dose: 100.0 mg/kg/injection, schedule: Q01DX001 (ip), vehicle: Klucel (hydroxypropylcellulose) (HPC)) 102 % of control; (dose: 200.0 mg/kg/injection, schedule: Q01DX001 (ip), vehicle: Klucel (hydroxypropylcellulose) (HPC)) 90 % of control; (dose: 400.0 mg/kg/injection, schedule: Q01DX001 (ip), vehicle: Klucel (hydroxypropylcellulose) (HPC)) 86 % of control.

Turning to `COc1ccc(CCNC(c2ccccc2)c2ccccc2)cc1OC`, the T/C runs as follows: under setting [1], 105 % of control; under setting [2], 108 % of control; under setting [3], 105 % of control.

As for `CCOC(=O)CNC(=O)Nc1cccc(F)c1`, the T/C was 103 % of control under setting [4], 102 % of control under setting [5] and 96 % of control under setting [6].

Take `O=C(OCc1ccccc1CN1CCCCC1)c1ccc([N+](=O)[O-])cc1`: the T/C is, setting by setting: under setting [7], 101 % of control; (dose: 50.0 mg/kg/injection, schedule: Q04DX002 (ip), vehicle: Klucel (hydroxypropylcellulose) (HPC)) 94 % of control; under setting [8], 90 % of control.

`N#Cc1ccccc1CC(O)(c1ccccc1)c1ccccc1`: the T/C is, setting by setting: (dose: 50.0 mg/kg/injection, schedule: Q01DX001 (ip), vehicle: saline) 96 % of control; (dose: 100.0 mg/kg/injection, schedule: Q01DX001 (ip), vehicle: saline) 102 % of control; (dose: 200.0 mg/kg/injection, schedule: Q01DX001 (ip), vehicle: saline) 93 % of control; (dose: 400.0 mg/kg/injection, schedule: Q01DX001 (ip), vehicle: saline) 91 % of control.

`CCCCN(CC)CCNc1cc(C)nc(/N=C(\N)Nc2ccc(Cl)c(Cl)c2)n1`: the T/C is, setting by setting: (dose: 18.75 mg/kg/injection, schedule: Q01DX009 (ip), vehicle: Klucel (hydroxypropylcellulose) (HPC)) 102 % of control; (dose: 37.5 mg/kg/injection, schedule: Q01DX009 (ip), vehicle: Klucel (hydroxypropylcellulose) (HPC)) 88 % of control.

As to `CC([NH-])C[NH-].[Cl][Pt+2][Cl]` (stereo not drawn), the T/C reads like this: (dose: 0.31 mg/kg/injection, schedule: Q01DX009 (ip), vehicle: saline) 108 % of control; (dose: 0.62 mg/kg/injection, schedule: Q01DX009 (ip), vehicle: saline) 116 % of control and 119 % of control; (dose: 1.1 mg/kg/injection, schedule: Q01DX009 (ip), vehicle: saline) 111 % of control; (dose: 1.25 mg/kg/injection, schedule: Q01DX009 (ip), vehicle: saline) 122 % of control; (dose: 1.65 mg/kg/injection, schedule: Q01DX009 (ip), vehicle: saline) 116 % of control; (dose: 3.75 mg/kg/injection, schedule: Q01DX009 (ip), vehicle: saline) 173 % of control. Also, the T/C (dose: 5.0 mg/kg/injection, schedule: Q01DX009 (ip), vehicle: saline) was 93 % of control and 108 % of control; the T/C (dose: 6.25 mg/kg/injection, schedule: Q04DX002 (ip), vehicle: Klucel (hydroxypropylcellulose) (HPC)) is 112 % of control; the T/C (dose: 12.5 mg/kg/injection, schedule: Q04DX002 (ip), vehicle: Klucel (hydroxypropylcellulose) (HPC)) was 112 % of control; the T/C under setting [7] was 104 % of control.

Turning to `O=C(O)/C=C(/Oc1ccc(Cl)cc1Cl)C(=O)O`, the T/C under setting [8] was 97 % of control; the T/C (dose: 100.0 mg/kg/injection, schedule: Q04DX002 (ip), vehicle: saline with Tween-80) was 100 % of control; the T/C (dose: 200.0 mg/kg/injection, schedule: Q04DX002 (ip), vehicle: Klucel (hydroxypropylcellulose) (HPC)) is 87 % of control; the T/C (dose: 200.0 mg/kg/injection, schedule: Q04DX002 (ip), vehicle: saline with Tween-80) was 100 % of control; the T/C (dose: 400.0 mg/kg/injection, schedule: Q04DX002 (ip), vehicle: Klucel (hydroxypropylcellulose) (HPC)) is 110 % of control; the T/C (dose: 400.0 mg/kg/injection, schedule: Q04DX002 (ip), vehicle: saline with Tween-80) was 100 % of control.

As for `CSc1nc(N)c(C#N)cc1C#N`, the T/C was 88 % of control under setting [4], 88 % of control under setting [5] and 88 % of control under setting [6].

For `O=c1[nH]ccn2cncc12`, the T/C was 93 % of control under setting [1], 103 % of control under setting [2] and 106 % of control under setting [3].

On to `CO[C@@H]1[C@@H](OC2OC(C)C(OC3CC(C)(O)C(OC(=O)CC(C)C)C(C)O3)C(N(C)C)C2O)[C@@H](CC=O)C[C@@H](C)C(=O)/C=C/C2O[C@H]2C[C@@H](C)OC(=O)C[C@H]1OC(C)=O` (stereo partly drawn), for which the T/C by setting is: (dose: 50.0 mg/kg/injection, schedule: Q01DX Z (ip), vehicle: other) 103 % of control; (dose: 100.0 mg/kg/injection, schedule: Q01DX001 (ip), vehicle: water) 108 % of control; (dose: 100.0 mg/kg/injection, schedule: Q01DX015 (ip), vehicle: water) 102 % of control; (dose: 100.0 mg/kg/injection, schedule: Q01DX Z (ip), vehicle: other) 110 % of control; (dose: 100.0 mg/kg/injection, schedule: Q#A X030 (ip), vehicle: water) 108 % of control and 92 % of control; (dose: 150.0 mg/kg/injection, schedule: Q01DX Z (ip), vehicle: other) 105 % of control. Further, the T/C reads like this: (dose: 150.0 mg/kg/injection, schedule: Q#A X030 (ip), vehicle: water) 97 % of control; (dose: 200.0 mg/kg/injection, schedule: Q01DX001 (ip), vehicle: water) 106 % of control; (dose: 200.0 mg/kg/injection, schedule: Q01DX015 (ip), vehicle: water) 118 % of control; (dose: 200.0 mg/kg/injection, schedule: Q01DX Z (ip), vehicle: methylcellulose (MC)) 118 % of control; (dose: 200.0 mg/kg/injection, schedule: Q01DX Z (ip), vehicle: other) 105 % of control; (dose: 200.0 mg/kg/injection, schedule: Q#A X030 (ip), vehicle: water) 118 % of control. Besides, the T/C is 118 % of control (dose: 250.0 mg/kg/injection, schedule: Q01DX Z (ip), vehicle: methylcellulose (MC)); 115 % of control (dose: 250.0 mg/kg/injection, schedule: Q01DX Z (ip), vehicle: other); 101 % of control and 118 % of control (dose: 300.0 mg/kg/injection, schedule: Q01DX015 (ip), vehicle: water); 116 % of control (dose: 300.0 mg/kg/injection, schedule: Q01DX Z (ip), vehicle: methylcellulose (MC)); 116 % of control (dose: 350.0 mg/kg/injection, schedule: Q01DX Z (ip), vehicle: methylcellulose (MC)); 101 % of control (dose: 400.0 mg/kg/injection, schedule: Q01DX001 (ip), vehicle: water). In addition, the T/C runs as follows: (dose: 400.0 mg/kg/injection, schedule: Q01DX015 (ip), vehicle: water) 87 % of control; (dose: 600.0 mg/kg/injection, schedule: Q01DX001 (ip), vehicle: water) 110 % of control.

For the molecule `CCNC(=O)c1ccc2c(c1NCC)C(=O)c1ccccc1C2=O`, the T/C runs as follows: (dose: 75.0 mg/kg/injection, schedule: Q01DX001 (ip), vehicle: acetone) 98 % of control; (dose: 150.0 mg/kg/injection, schedule: Q01DX001 (ip), vehicle: acetone) 104 % of control; (dose: 300.0 mg/kg/injection, schedule: Q01DX001 (ip), vehicle: acetone) 104 % of control.

On to `Cc1ccc(C(=O)N/N=C/c2ccc(N(C)C)cc2Cl)cc1`, for which the T/C was 105 % of control (dose: 100.0 mg/kg/injection, schedule: Q04DX002 (ip), vehicle: saline); 108 % of control (dose: 200.0 mg/kg/injection, schedule: Q04DX002 (ip), vehicle: saline); 105 % of control (dose: 400.0 mg/kg/injection, schedule: Q04DX002 (ip), vehicle: saline).

Regarding `Cc1nc(N)[nH]c(=O)c1CCCNc1ccc(CCCCC2(CCl)OCCO2)cc1`, the T/C is, setting by setting: (dose: 50.0 mg/kg/injection, schedule: Q01DX Z (ip), vehicle: carboxymethylcellulose (CMC)) 98 % of control; (dose: 100.0 mg/kg/injection, schedule: Q01DX Z (ip), vehicle: carboxymethylcellulose (CMC)) 101 % of control; (dose: 200.0 mg/kg/injection, schedule: Q01DX Z (ip), vehicle: carboxymethylcellulose (CMC)) 95 % of control; (dose: 400.0 mg/kg/injection, schedule: Q01DX Z (ip), vehicle: carboxymethylcellulose (CMC)) 101 % of control.

Consider `Cc1cccc(NC(=O)C2CCC(C)(C(=O)O)C2(C)C)c1` (stereo not drawn), for which the T/C was 101 % of control (dose: 50.0 mg/kg/injection, schedule: Q01DX009 (ip), vehicle: saline with Tween-80); 101 % of control under setting [4]; 96 % of control under setting [5].

The record behind these values is PubChem BioAssay AID248 (DTP/NCI, 2004).
